From patent EP3816157A1 (Guangxi Normal University, priority 2019, dated 2021)

What was measured:
Assay in all cases: MTT inhibition test against cell growth
NCI-H460 = assay type: cell-based; details: human large cell lung cancer cell NCI-H460, 48 hours
Protocol: (§1) The test selected human ovarian cancer cell SK-OV-3, liver cancer cell Hep-G2, gastric cancer cell MGC-803, bladder cancer cell T-24, cervical cancer cell HeLa-229, human large cell lung cancer cell NCI-H460 and human normal liver cell HL-7702, and all the used cell lines were placed in an RPMI-1640 or high-sugar DMEM culture solution containing 1% penicillin-streptomycin and 10% newborn fetal calf serum and cultured in an incubator at 37 °C and 5% CO2. The growths of the cells were observed discontinuously by an inverted microscope, and the culture solution was replaced periodically or digestion subcultured with 0.25% trypsin according to actual situations. […] The compounds each were formulated into 20 µmol/L of a solution, DMSO is used as a cosolvent with a final concentration of ≤1%; at the concentration, the inhibition degrees of the compounds against the growth of tumor cells were tested. […] After the individual tumor cells were attached to the wall, the working solutions of the tested compounds were added, and each compound is provided with quintuple holes in parallel whilst a corresponding control group (with a culture solution only containing tumor cells and the same equivalent of DMSO but without the tested compounds) is provided. […] The following equitation was utilized: […]

HL-7702 = assay type: cell-based
Protocol: as §1

HeLa-229 = assay type: cell-based, human; details: cervical cancer cell HeLa-229, 48 hours
Protocol: as §1

T-24 = assay type: cell-based, human; details: bladder cancer cell T-24, 48 hours
Protocol: as §1

HepG-2 = assay type: cell-based, human
Protocol: as §1

MGC-803 = assay type: cell-based, human; details: gastric cancer cell MGC-803, 48 hours
Protocol: as §1

[1] = L02, human normal liver cell HL-7702, 48 hours
[2] = Homo sapiens, HepG2, liver cancer cell HepG-2, 48 hours

Structure (SMILES)	IC50 (NCI-H460) [µM]	IC50 (HL-7702; human normal liver cell HL-7702, 48 hours) [µM]	IC50 (HeLa-229) [µM]	IC50 (T-24) [µM]	IC50 (HepG-2; liver cancer cell HepG-2, 48 hours) [µM]	IC50 (MGC-803) [µM]	IC50 (HL-7702; [1]) [µM]	IC50 (HeLa-229; Homo sapiens) [µM]	IC50 (T-24; Homo sapiens) [µM]	IC50 (HepG-2; [2]) [µM]	IC50 (MGC-803; Homo sapiens) [µM]
N.N.[Cl][Pt][Cl] [cisplatin]	18.3 ± 1.02	12.7 ± 1.27	13.2 ± 2.74	14.8 ± 2.74	18.6 ± 0.78	17.8 ± 2.5					
O=Cc1c2ccccc2c(C=NNC2=NCCN2)c2ccccc12 [9-formyl-10-imidazolylanthrahydrazone]	16.1 ± 1.4						16.4 ± 2.78	> 20	13.9 ± 1.46	15.1 ± 1.69	18.8 ± 0.5
O=S(=O)(O)c1ccc(N=Cc2c3ccccc3c(C=NNC3=NCCN3)c3ccccc23)cc1 [9-benzenesulfonic acid-10-imidazolylanthrahydrazone]	14.5 ± 1.42						11.3 ± 0.71	10.5 ± 1.52	10.7 ± 0.56	12.7 ± 1.56	9.48 ± 0.68
